Assay results from patent publication US12458647B2, “Macrocyclic derivative and use thereof” (Guangzhou Joyo Pharmatech Co., Ltd., priority 2022, dated 2025).
Read-outs that look alike come from different tables or passages of the source.

System: p-ERK level in GP2D cells
Experiment: Detection of p-ERK level in GP2D cells (HTRF)
Type: cell-based
Settings: 3 hours incubation, read-out: GP2D pERK IC50
Excerpt: GP2D cell line (DMEM+10% FBS+1% penicillin/streptomycin) was purchased from ECACC; RPMI-1640 medium was purchased from Gibco; fetal bovine serum was purchased from Hyclone; Advanced Phospho-ERK1/2(THR202/TYR204) KIT was purchased from Bioauxilium-Advanced Phospho; ERK1/2(THR202/TYR204) KIT was composed of: Advanced PhosphoERK1/2Eu Cryptate antibody, Advanced PhosphoERK1/2 d2 antibody. Blocking reagent (stock solution 100×), Lysis buffer #1 (stock solution 4×), Detection buffer (ready-to-use), with a storage temperature of ≤−16° C. for all.
(1) The cells were seeded in a white-bottomed 384-well cell culture plate, 8 μL of cell suspension per well, each well containing 7,500 cells. The cell plate was placed in a carbon dioxide incubator and incubated overnight at 37° C.;
(2) The test compound was diluted with 100% DMSO to 3 mM as the first concentration, and then diluted with a pipette to 10 concentrations of 3,000, 1,000, 300, 100, 30, 10, 3, 1, 0.3 and 0.1 μM 2 μL of the compound was taken and added to 198 μL of cell starvation medium, mixed well, 15 μL of compound solution was taken and added to 35 μL of cell starvation medium and mixed well. […]
(5) After incubation, a multilabel plate reader was used to read the HTRF excitation: 320 nm, emission: 615 nm, and 665 nm. […]

IC50 [nM] | IC50 (GP2d) [nM] | SMILES
0.8 | – | CCn1c(-c2cc(N3CCN(C)CC3)cnc2C(C)OC)c2c3cc(ccc31)-c1csc(n1)CC(NC(=O)C1CC1C(F)F)C(=O)N1NC(C(=O)OCC(C)(C)C2)C2CC1C2 (single isomer, unassigned) [Trifluoroacetate of Compound 8A]
– | 0.2 | [2H]C([2H])([2H])N1CCN(c2cnc([C@H](C)OC)c(-c3c4c5cc(ccc5n3CC)-c3csc(n3)C[C@H](NC(=O)[C@H]3[C@H](C)[C@@H]3C)C(=O)N3N[C@H](C(=O)OCC(C)(C)C4)C4CC3C4)c2)CC1 [Trifluoroacetate of Compound 12A]
